Assay results published in US20240180920A1, “CERTAIN FASCIN BINDING COMPOUNDS FOR SPINOGENESIS” (Spinogenix, Inc., priority 2021, published 2024).

Columns and labels:
[1] = test system: primary mouse hippocampal neurons; assay: Synaptic density (colocalized PSD95/VGlut elements per length of dendrite) in treated neurons, FIG. 1; format: cell-based; conditions: 10 μM compared with 500 nM and 50 nM, 24 hours
Procedure: Specifically, primary mouse hippocampal neurons were treated on day 14 in culture with one of the four compounds, each at concentrations of 10 μM, 500 nM, and 50 nM, or with control (vehicle (0.1% DMSO)) for 24 hours. Following the treatments, neurons were fixed in 4% paraformaldehyde and processed for staining with phalloidin and immunolabeling with antibodies to the postsynaptic marker PSD95, and the presynaptic marker VGlut. Images were acquired using a laser scanning confocal microscope and analyzed for the number of colocalized pre and post synaptic elements per length of dendrite. Studies were performed across 3 biological preparations of primary neurons, with a minimum of 12 dendritic segments analyzed per treatment/prep. Graphing and statistical analyses of synaptic density data were performed with Prism software.

[2] = target: fascin actin-binding site 2 (Homo sapiens, UniProt Q16658); conditions: stated as known; cited from earlier work
fascin = fascin (Homo sapiens, UniProt Q16658); conditions: stated as known; cited from earlier work

Compound | concentration dependence of activity (synaptic density) [1] | interaction with or binding to fascin [2] | effect on fascin's actin-bundling activity (fascin)
N=C(N)NCCCCC(=O)Nc1cc(C(F)(F)F)cc(NC(=O)c2cc(C(=O)Nc3cc(C(F)(F)F)cc(NC(=O)CCCCNC(=N)N)c3O[C@@H]3CCNC3)ncn2)c1O[C@@H]1CCNC1 (racemic) [brilacidin] | higher activities at the concentration of 10 μM than at lower concentrations |  | 
CN(C)CCCN1c2ccccc2CCc2ccccc21 [imipramine] | higher activities at the concentration of 10 μM than at lower concentrations | known to interact with or bind fascin at actin-binding site 2 | interact or inhibit fascin's actin-bundling activity
C/C(=N\NC(=N)N)c1cc(NC(=O)CCCCCCCCC(=O)Nc2cc(/C(C)=N/NC(=N)N)cc(/C(C)=N/NC(=N)N)c2)cc(/C(C)=N/NC(=N)N)c1 [semapimod] | higher activities at the concentration of 10 μM than at lower concentrations |  | 
